Measured values as given in PubChem BioAssay (NCI).
Where “and” joins values, the source holds several entries; their conditions need not be identical. Equal values may be shown once.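 Where inhibition never reached the appropriate level, the endpoint shown equals the highest concentration tested. Otherwise, values were interpolated linearly from a five-concentration, 48-hour dose response in 96-well plates. At the GI50, growth is halved. TGI denotes the concentration required for complete inhibition of growth.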

Key:
Assay in all cases: NCI-60 cell line screen, 48 h
[1] = system: HL-60(TB) leukemia
[2] = system: KM12 colon
[3] = system: M14 melanoma
[4] = system: UO-31 renal
[5] = system: NCI/ADR-RES ovarian
[6] = system: 786-0 renal
[7] = system: NCI-H23 lung
[8] = system: IGROV1 ovarian
[9] = system: COLO 205 colon
[10] = system: SNB-75 CNS
[11] = system: OVCAR-4 ovarian
[12] = system: HS 578T breast
[13] = system: A498 renal
[14] = system: HOP-92 NSCLC
[15] = system: TK-10 renal
[16] = system: MDA-MB-231 breast
[17] = system: RXF 393 renal
[18] = system: UACC-62 melanoma
[19] = system: LOX IMVI melanoma
[20] = system: HT29 colon
[21] = system: NCI-H226 lung
[22] = system: A549 NSCLC
[23] = system: ACHN renal
[24] = system: MDA-MB-435
[25] = system: OVCAR-3 ovarian
[26] = system: T-47D breast
[27] = system: SF-539 CNS
[28] = system: OVCAR-8 ovarian
[29] = system: SN12C renal
[30] = system: SK-MEL-5 melanoma
[31] = system: SF-295 CNS
[32] = system: SW-620 colon
[33] = system: HOP-62 NSCLC
[34] = system: MALME-3M melanoma
[35] = system: K-562 leukemia
[36] = system: NCI-H522 lung
[37] = system: SK-OV-3 ovarian
[38] = system: SK-MEL-28 melanoma
[39] = system: MCF7 breast
[40] = system: HCT-15 colon
[41] = system: RPMI-8226 leukemia
[42] = system: HCC-2998 colon
[43] = system: SR leukemia
[44] = system: U251 CNS
[45] = system: MOLT-4 leukemia
[46] = system: UACC-257 melanoma
[47] = system: OVCAR-5 ovarian
[48] = system: SK-MEL-2 melanoma
[49] = system: CCRF-CEM leukemia
[50] = system: DU-145 prostate
[51] = system: HCT-116 colon
[52] = system: SNB-19 CNS
[53] = system: PC-3 prostate
[54] = system: BT-549 breast
[55] = system: NCI-H460 lung
[56] = system: CAKI-1 renal
[57] = system: EKVX NSCLC
[58] = system: SF-268 CNS

CNS(=O)(=O)Nc1nccc(Cc2c(C)c3ccc(Oc4ncccn4)cc3oc2=O)c1F
GI50 [1]: 0.0449 µM and 0.00891 µM
TGI [1]: > 100 µM
GI50 [2]: 0.467 µM and 0.367 µM
TGI [2]: > 100 µM
GI50 [3]: 0.0116 µM and 0.0113 µM
TGI [3]: 1.63 µM and > 10 µM
TGI [4]: > 100 µM
GI50 [5]: 20.2 µM and > 10 µM
TGI [5]: > 100 µM
GI50 [6]: > 85.9 µM
TGI [6]: > 100 µM
GI50 [7]: 0.061 µM and 0.148 µM
TGI [7]: > 100 µM
GI50 [8]: 0.938 µM and 0.0955 µM
TGI [8]: > 100 µM
GI50 [9]: 0.0176 µM and 0.00703 µM
TGI [9]: > 100 µM
GI50 [10]: > 58.9 µM
TGI [10]: > 100 µM
GI50 [11]: 4.33 µM and > 5.62 µM
TGI [11]: > 100 µM
GI50 [12]: > 100 µM
TGI [12]: > 100 µM
GI50 [13]: 0.0424 µM and 0.0459 µM
TGI [13]: 1.38 µM and 0.531 µM
GI50 [14]: < 0.0152 µM and 0.0613 µM
TGI [14]: 0.406 µM and 1.93 µM
GI50 [15]: 0.184 µM and 0.0841 µM
TGI [15]: > 100 µM
GI50 [16]: 0.549 µM and 0.313 µM
TGI [16]: > 100 µM
GI50 [17]: 4.99 µM and 3.02 µM
TGI [17]: > 100 µM
GI50 [18]: < 0.0105 µM and 0.00277 µM
TGI [18]: 0.0941 µM
GI50 [19]: 0.356 µM and 0.977 µM
TGI [19]: > 100 µM
GI50 [20]: 0.0278 µM and 0.0231 µM
TGI [20]: > 100 µM
GI50 [21]: 6.82 µM and > 10 µM
TGI [21]: > 100 µM
GI50 [22]: 0.674 µM and 1.08 µM
TGI [22]: > 100 µM
GI50 [23]: 4.92 µM and > 2.21 µM
TGI [23]: > 100 µM
GI50 [24]: 0.0526 µM and 0.0395 µM
TGI [24]: > 100 µM
GI50 [25]: 24.5 µM and > 10 µM
TGI [25]: > 100 µM
GI50 [26]: 16.1 µM and > 10 µM
TGI [26]: > 100 µM
GI50 [27]: 61.5 µM and > 10 µM
TGI [27]: > 100 µM
GI50 [28]: 33.8 µM and > 10 µM
TGI [28]: > 100 µM
GI50 [29]: 13.1 µM and > 8.08 µM
TGI [29]: > 100 µM
GI50 [30]: 0.153 µM and 0.926 µM
TGI [30]: 17.4 µM and > 10 µM
GI50 [31]: 27.8 µM and > 10 µM
TGI [31]: > 100 µM
GI50 [32]: 0.0194 µM and 0.0159 µM
TGI [32]: > 100 µM
TGI [33]: > 100 µM
GI50 [34]: < 0.01 µM and 0.00211 µM
TGI [34]: 0.0401 µM and 0.0217 µM
GI50 [35]: 2.21 µM and 1.62 µM
TGI [35]: > 100 µM
GI50 [36]: 22.3 µM and > 10 µM
TGI [36]: > 100 µM
TGI [37]: > 100 µM
GI50 [38]: 0.0234 µM and 0.00549 µM
GI50 [39]: 57 µM and > 10 µM
TGI [39]: > 100 µM
GI50 [40]: > 25.7 µM
TGI [40]: > 100 µM
GI50 [41]: 12.3 µM and > 9.21 µM
TGI [41]: > 100 µM
GI50 [42]: 0.0209 µM and 0.00869 µM
TGI [42]: > 10 µM
GI50 [43]: > 100 µM
TGI [43]: > 100 µM
GI50 [44]: 17.4 µM and > 10 µM
TGI [44]: > 100 µM
GI50 [45]: 53.4 µM and > 10 µM
TGI [45]: > 100 µM
GI50 [46]: 0.0153 µM and 0.0116 µM
TGI [46]: 0.0866 µM and 0.0784 µM
GI50 [47]: 0.0223 µM and 0.0145 µM
TGI [47]: > 100 µM
GI50 [48]: < 0.01 µM and 0.00879 µM
TGI [48]: > 100 µM
GI50 [49]: > 100 µM
TGI [49]: > 100 µM
GI50 [50]: 39 µM and > 10 µM
TGI [50]: > 100 µM
GI50 [51]: 0.07 µM and 0.103 µM
TGI [51]: > 100 µM
GI50 [52]: > 48.4 µM
TGI [52]: > 100 µM
GI50 [53]: > 100 µM
TGI [53]: > 100 µM
GI50 [54]: 24.2 µM and > 10 µM
TGI [54]: > 100 µM
GI50 [55]: > 62 µM
TGI [55]: > 100 µM
GI50 [56]: 1.34 µM
TGI [56]: > 100 µM
GI50 [57]: 0.438 µM and 0.351 µM
TGI [57]: > 100 µM
GI50 [58]: > 86 µM
TGI [58]: > 100 µM

CC(C)c1ccc2c(c1)CCC1C2CCCC1(C)NCc1ccccc1 (stereo not drawn)
GI50 [1]: 2.34 µM
TGI [1]: 6.85 µM
GI50 [2]: 3.07 µM
TGI [2]: 11.6 µM
GI50 [3]: 1.97 µM
TGI [3]: 3.71 µM
GI50 [4]: 6.76 µM
TGI [4]: 21.1 µM
GI50 [5]: 5.84 µM
TGI [5]: 19.9 µM
GI50 [6]: 2.43 µM
TGI [6]: 5.61 µM
GI50 [7]: 5.48 µM
TGI [7]: 19.7 µM
GI50 [8]: 6.43 µM
TGI [8]: 20.7 µM
GI50 [9]: 0.332 µM
TGI [9]: 1.11 µM
GI50 [10]: 8.77 µM
TGI [10]: 21.3 µM
GI50 [11]: 7.26 µM
TGI [11]: 19.8 µM
GI50 [12]: 4.99 µM
TGI [12]: 23.7 µM
GI50 [13]: 11.5 µM
TGI [13]: 24.5 µM
GI50 [14]: 1.95 µM
TGI [14]: 4.13 µM
GI50 [15]: 2.71 µM
TGI [15]: 7.19 µM
GI50 [16]: 3.31 µM
TGI [16]: 12.4 µM
GI50 [17]: 2.44 µM
TGI [17]: 4.66 µM
GI50 [18]: 1.96 µM
TGI [18]: 4.39 µM
GI50 [19]: 2.27 µM
TGI [19]: 7.12 µM
GI50 [20]: 0.78 µM
TGI [20]: 2.7 µM
GI50 [21]: 5.38 µM
TGI [21]: 18.4 µM
GI50 [22]: 15.5 µM
TGI [22]: 31.1 µM
GI50 [23]: 10 µM
TGI [23]: 22.7 µM
GI50 [24]: 2.79 µM
TGI [24]: 9.64 µM
GI50 [25]: 9.34 µM
TGI [25]: 24.4 µM
GI50 [26]: 2.22 µM
TGI [26]: 4.63 µM
GI50 [27]: 5.5 µM
TGI [27]: 18.5 µM
GI50 [28]: 13.5 µM
TGI [28]: 28.9 µM
GI50 [29]: 5.56 µM
TGI [29]: 19.2 µM
GI50 [30]: 1.82 µM
TGI [30]: 3.35 µM
GI50 [31]: 2.17 µM
TGI [31]: 6.17 µM
GI50 [32]: 2.17 µM
TGI [32]: 6.1 µM
GI50 [33]: 8.94 µM
TGI [33]: 21.4 µM
GI50 [34]: 1.92 µM
TGI [34]: 4.18 µM
GI50 [35]: 1.46 µM
TGI [35]: 10.9 µM
GI50 [36]: 1.68 µM
TGI [36]: 3.55 µM
GI50 [37]: 14.3 µM
TGI [37]: 27.6 µM
GI50 [38]: 1.98 µM
TGI [38]: 3.83 µM
GI50 [39]: 2.53 µM
TGI [39]: 6.76 µM
GI50 [40]: 2.87 µM
TGI [40]: 9.05 µM
GI50 [41]: 2.02 µM
TGI [41]: 4.98 µM
GI50 [42]: 0.608 µM
TGI [42]: 2.01 µM
GI50 [43]: 1.8 µM
TGI [43]: 6.3 µM
GI50 [44]: 4.69 µM
TGI [44]: 15.8 µM
GI50 [45]: 3.25 µM
TGI [45]: 12.1 µM
GI50 [46]: 2.52 µM
TGI [46]: 6.13 µM
GI50 [47]: 3.48 µM
TGI [47]: 13.6 µM
GI50 [48]: 2.04 µM
TGI [48]: 4.16 µM
GI50 [49]: 5.32 µM
TGI [49]: 27.9 µM
GI50 [50]: 8.61 µM
TGI [50]: 24.3 µM
GI50 [51]: 4.21 µM
TGI [51]: 14.7 µM
GI50 [52]: 12.8 µM
TGI [52]: 26.4 µM
GI50 [53]: 6.06 µM
TGI [53]: 19.3 µM
GI50 [54]: 8.42 µM
TGI [54]: 20.8 µM
GI50 [55]: 3.43 µM
TGI [55]: 12.9 µM
GI50 [56]: 3.22 µM
TGI [56]: 15.3 µM
GI50 [57]: 10.7 µM
TGI [57]: 24.6 µM
GI50 [58]: 8.98 µM
TGI [58]: 26.1 µM
